In ChEMBL document CHEMBL3865818, “4,5-Diaryl-3H-1,2-dithiole-3-thiones and related compounds as combretastatin A-4/oltipraz hybrids: Synthesis, molecular modelling and evaluation as antiproliferative agents and inhibitors of tubulin” (Eur J Med Chem, 2016):
Activity calls are given as the source filed them. The calls are words filed in the database; no cut-off is given here.

What was measured:
[1] = Cell cycle arrest in human KB cells assessed as accumulation at S-phase measured after 36 hrs by propidium iodide staining-based flow cytometry (reference value: 16.51%); assay type: functional
[2] = Cell cycle arrest in human KB cells assessed as accumulation at S-phase at 0.05 uM measured after 60 hrs by propidium iodide staining-based flow cytometry (reference value: 12.66%); assay type: functional
[3] = Cell cycle arrest in human KB cells assessed as accumulation at S-phase at 0.1 uM measured after 12 hrs by propidium iodide staining-based flow cytometry (reference value: 15.5%); assay type: functional
[4] = Cell cycle arrest in human KB cells assessed as accumulation at G2/M-phase at 0.2 uM measured after 36 hrs by propidium iodide staining-based flow cytometry (reference value: 27.34%); assay type: functional
[5] = Cell cycle arrest in human KB cells assessed as accumulation at SubG1-phase measured after 24 hrs by propidium iodide staining-based flow cytometry (reference value: 0.76%); assay type: functional
[6] = Cell cycle arrest in human KB cells assessed as accumulation at G0/G1-phase at 0.05 uM measured after 60 hrs by propidium iodide staining-based flow cytometry (reference value: 63.85%); assay type: functional
[7] = Cell cycle arrest in human KB cells assessed as accumulation at G2/M-phase at 0.2 uM measured after 12 hrs by propidium iodide staining-based flow cytometry (reference value: 30.19%); assay type: functional
[8] = Cell cycle arrest in human KB cells assessed as accumulation at G2/M-phase at 0.1 uM measured after 36 hrs by propidium iodide staining-based flow cytometry (reference value: 27.34%); assay type: functional
[9] = Cell cycle arrest in human KB cells assessed as accumulation at SubG1-phase measured after 12 hrs by propidium iodide staining-based flow cytometry (reference value: 1.23%); assay type: functional
[10] = Cell cycle arrest in human KB cells assessed as accumulation at G2/M-phase at 0.2 uM measured after 48 hrs by propidium iodide staining-based flow cytometry (reference value: 23.36%); assay type: functional
[11] = Cell cycle arrest in human KB cells assessed as accumulation at G2/M-phase measured after 12 hrs by propidium iodide staining-based flow cytometry (reference value: 30.19%); assay type: functional
[12] = Cell cycle arrest in human KB cells assessed as accumulation at SubG1-phase at 0.1 uM measured after 60 hrs by propidium iodide staining-based flow cytometry (reference value: 1.24%); assay type: functional
[13] = Cell cycle arrest in human KB cells assessed as accumulation at SubG1-phase at 0.2 uM measured after 12 hrs by propidium iodide staining-based flow cytometry (reference value: 1.23%); assay type: functional
[14] = Antiproliferative activity against human SGC7901 cells measured after 72 hrs by MTT assay; assay type: functional, cell-based; conditions: SGC-7901, 72 h
[15] = Cell cycle arrest in human KB cells assessed as increase in subG1-peak at 0.2 uM by propidium iodide staining-based flow cytometry; assay type: functional; conditions: TDE = time-dependent effect
[16] = Cell cycle arrest in human KB cells assessed as accumulation at G0/G1-phase at 0.2 uM measured after 24 hrs by propidium iodide staining-based flow cytometry (reference value: 48.52%); assay type: functional
[17] = Cell cycle arrest in human KB cells assessed as accumulation at G0/G1-phase at 0.05 uM measured after 48 hrs by propidium iodide staining-based flow cytometry (reference value: 58.26%); assay type: functional
[18] = Cell cycle arrest in human KB cells assessed as accumulation at G2/M-phase at 0.05 uM measured after 12 hrs by propidium iodide staining-based flow cytometry (reference value: 30.19%); assay type: functional
[19] = Cell cycle arrest in human KB cells assessed as accumulation at SubG1-phase at 0.05 uM measured after 48 hrs by propidium iodide staining-based flow cytometry (reference value: 0.61%); assay type: functional
KB = test: Inhibition of alpha-tubulin in human KB cells assessed as disruption of microtubule formation at 0.2 uM by DAPI staining-based immunofluorescence assay; assay type: cell-based
[20] = Cell cycle arrest in human KB cells assessed as accumulation at G2/M-phase at 0.2 uM measured after 60 hrs by propidium iodide staining-based flow cytometry (reference value: 18.9%); assay type: functional
[21] = Antiproliferative activity against human HT1080 cells measured after 72 hrs by MTT assay; assay type: functional, cell-based; conditions: HT-1080, 72 h
[22] = Cell cycle arrest in human KB cells assessed as accumulation at G2/M-phase at 0.1 uM measured after 48 hrs by propidium iodide staining-based flow cytometry (reference value: 23.36%); assay type: functional
[23] = Cell cycle arrest in human KB cells assessed as accumulation at SubG1-phase at 0.2 uM measured after 24 hrs by propidium iodide staining-based flow cytometry (reference value: 0.76%); assay type: functional
[24] = Cell cycle arrest in human KB cells assessed as accumulation at G0/G1-phase measured after 12 hrs by propidium iodide staining-based flow cytometry (reference value: 48.26%); assay type: functional
[25] = Cell cycle arrest in human KB cells assessed as accumulation at G0/G1-phase at 0.05 uM measured after 12 hrs by propidium iodide staining-based flow cytometry (reference value: 48.26%); assay type: functional
[26] = Cell cycle arrest in human KB cells assessed as accumulation at G2/M-phase measured after 48 hrs by propidium iodide staining-based flow cytometry (reference value: 23.36%); assay type: functional
[27] = Cell cycle arrest in human KB cells assessed as accumulation at S-phase measured after 48 hrs by propidium iodide staining-based flow cytometry (reference value: 13.32%); assay type: functional
[28] = Cell cycle arrest in human KB cells assessed as accumulation at S-phase measured after 24 hrs by propidium iodide staining-based flow cytometry (reference value: 16.96%); assay type: functional
[29] = Cell cycle arrest in human KB cells assessed as accumulation at S-phase at 0.2 uM measured after 12 hrs by propidium iodide staining-based flow cytometry (reference value: 15.5%); assay type: functional
[30] = Cell cycle arrest in human KB cells assessed as accumulation at G0/G1-phase at 0.1 uM measured after 60 hrs by propidium iodide staining-based flow cytometry (reference value: 63.85%); assay type: functional
[31] = Cell cycle arrest in human KB cells assessed as accumulation at G2/M-phase measured after 24 hrs by propidium iodide staining-based flow cytometry (reference value: 28.84%); assay type: functional
[32] = Cell cycle arrest in human KB cells assessed as accumulation at SubG1-phase measured after 60 hrs by propidium iodide staining-based flow cytometry (reference value: 1.24%); assay type: functional
[33] = Cell cycle arrest in human KB cells assessed as accumulation at S-phase at 0.05 uM measured after 36 hrs by propidium iodide staining-based flow cytometry (reference value: 16.51%); assay type: functional
[34] = Cell cycle arrest in human KB cells assessed as accumulation at G2/M-phase at 0.05 uM measured after 24 hrs by propidium iodide staining-based flow cytometry (reference value: 28.84%); assay type: functional
[35] = Cell cycle arrest in human KB cells assessed as accumulation at SubG1-phase at 0.2 uM measured after 48 hrs by propidium iodide staining-based flow cytometry (reference value: 0.61%); assay type: functional
[36] = Cell cycle arrest in human KB cells assessed as accumulation at S-phase at 0.1 uM measured after 60 hrs by propidium iodide staining-based flow cytometry (reference value: 12.66%); assay type: functional

`COc1ccc(-c2ssc(=O)c2-c2cc(OC)c(OC)c(OC)c2)cc1N` showed an Activity [1] of 25.4%, an Activity [2] of 8.75% and an Activity [3] of 21.6%. The Activity [4] was 34.7%, the Activity [5] was 12.3% and the Activity [6] was 37.8%. It also gave an Activity [7] of 70.2%, an Activity [8] of 23.7% and an Activity [9] of 1.85%. It also gave an Activity [10] of 19.4%, an Activity [11] of 64.4% and an Activity [12] of 57.8%. The Activity [13] was 2.22%, the IC50 [14] was 172 nM and the Activity [15] was “Tde”. It also gave an Activity [16] of 6.24%, an Activity [17] of 50.9% and an Activity [18] of 30.5%. For the same compound, the Activity [19] was 15.8%, the Activity (KB) was “Active” and the Activity [20] was 19.9%. For the same compound, the IC50 [21] was 147 nM, the Activity [22] was 22.6% and the Activity [23] was 11.1%. For the same compound, the Activity [24] was 8.18%, the Activity [25] was 43% and the Activity [26] was 15.5%. The Activity [27] was 12.6%, the Activity [28] was 26.9% and the Activity [29] was 22.8%. It also gave an Activity [30] of 12.3%, an Activity [31] of 52.1% and an Activity [32] of 58.1%. The Activity [33] was 11.7%, the Activity [34] was 36.6% and the Activity [35] was 49.9%. For the same compound, the Activity [36] was 9.61%.
